Values quoted from earlier work as cited in patent US20130109746A1, “COMPOSITION COMPRISING ELLAGIC ACID AND A PARTICULAR CATIONIC SURFACTANT, AND COSMETIC USE THEREOF” (L'OREAL S.A., priority 2010, published 2013).

Details: in water and in the solvents and oils commonly used in cosmetic compositions

solubility: very sparingly soluble
Compound: O=c1oc2c(O)c(O)cc3c(=O)oc4c(O)c(O)cc1c4c23 [ellagic acid, 2,3,7,8-tetrahydroxy(1)benzopyrano(5,4,3-cde)(1)benzopyran-5,10-dione]
